Common to all, as to type: cell-based
The test system of one data set is E. coli ATCC25922. As to the method:
(§1) Minimum inhibitory concentrations (MICs) were determined as previously described. The bacteria used to determine the MIC were first cultured in Mueller-Hilton broth (MHB) (AoBoX, Beijing, China) overnight at 37 °C and transferred into a fresh and sterile MHB and grown to an OD600 of 0.4. The bacteria then adjusted to a cell density of 5×10^5 CFU mL^−1 in MHB. Peptides were serially diluted in 0.01% acetic acid and 0.2% bovine serum albumin (BSA) (Sigma-Aldrich, Shanghai, China) in a volume of 50 μL per well to achieve final concentration ranging from 1 to 128 μM in sterile 96-well plates. 50 μL of prepared bacterial suspension was added to each well. The mixtures were incubated at 37 °C for 18–24 h. The MICs were calculated as the lowest concentration of the peptide that prevented visible turbidity. The tests were performed in triplicate using three replicates for each experiment.

The subject of another data set is E. coli UB 1005. As to the method:
as §1

A further data set concerns P. aeruginosa ATCC27853. On the procedure:
as §1

In a further data set the test system is S. aureus ATCC29213. On the procedure:
as §1

The subject of another data set is S. epidermidis ATCC12228. As to the method:
as §1

Another data set relates to S. faecalis ATCC29212. As to the method: as §1
In a further data set the test system is S. pullorum C7913. On the procedure: as §1
For a further data set, the system named is S. typhimurium ATCC14028. As to the method: as §1
In a further data set the test system is S. typhimurium C7731. On the procedure: as §1
Data set [1] deals with Gram-positive and Gram-negative bacteria. As to the kind of experiment: MIC over all tested bacterial strains (range, geometric mean). The following applies: for GM, geometric mean of the MIC values: all tested strains, 256 μM used where no activity at 128 μM. As to the method: as §1
It is calculated as HC10/GM.

Another data set deals with human erythrocytes. Description: Hemolytic activity. The following applies: for HC10, concentration that induced 10% hemolysis of human red blood cells: probit regression in SPSS, unit not given (peptides tested at 0.5–256 µM). On the procedure: Hemolytic activities of the peptides were determined according to the method described previously. Fresh heparinized human whole blood from healthy donor (Yang Yang, Harbin, China) was centrifuged at 1000 g for 5 min at 4 °C. The obtained erythrocytes were washed three times and resuspended in PBS. Then, 50 μL of erythrocyte solution was incubated with 50 μL peptides at different concentrations at 37 °C for 1 h. Erythrocytes in either PBS or 0.1% Triton X-100 (Sigma-Aldrich, Shanghai, China) were used as negative and positive controls, respectively. After centrifugation at 1000 g for 5 min at 4 °C, the supernatant was transferred into a new 96-well plate and the extent of hemolysis was monitored using a multimode microplate reader (Infinite M200 Pro, Tecan, Switzerland) at 576 nm. The percentage of hemolysis was calculated according to the following formula:hemolysis (%) = [(A-A0)/(At-A0)]×100(2) where A is the absorbance of the peptide sample, A0 and At represent 0% and 100% hemolysis determined in 10 mM PBS and 0.1% Triton X-100, respectively. Results were expressed as average values from three independent experiments and each experiment was performed in triplicate.
For statistical evaluation, data were analyzed using the Statistical Product and Service Solutions software (SPSS Inc., Chicago, IL, USA) by one-way ANOVA and the values were presented as mean ± standard error (SE). HC10 values were calculated by using probit regression in SPSS 19.

The test system of another data set is E. coli ATCC 25922. The following applies: ATCC 25922, 2 h. On the procedure: (§2) Minimum inhibitory concentrations (MICs) were determined as previously described. […] The bacteria then adjusted to a cell density of 5×10^5 CFU mL^−1 in MHB. […] The mixtures were incubated at 37 °C for 18–24 h. The MICs were calculated as the lowest concentration of the peptide that prevented visible turbidity. The tests were performed in triplicate using three replicates for each experiment. Serum stability was determined according to the method previously described. Human serum was added in the peptide solution with the volume ratio of 1:1 in which the final concentration of 50% v/v of serum was yielded. Serum-peptide mixtures with the final concentration of 25% and 12.5% v/v serum were also prepared. Subsequently, the mixture was incubated at 37 °C for 2h. The antimicrobial activities of serum-preincubated peptides were determined according the MIC assay described above.

The test system of the next data set is S. aureus ATCC 29213. The following applies: ATCC 29213, 2 h. As to the method: as §2

≈ marks a conversion by molar mass, not a printed value. Residues, ends and D or L forms follow the SMILES beside them.

In the case of `CC[C@H](C)[C@H](NC(=O)[C@H](CCCCN)NC(=O)[C@H](CCCCN)NC(=O)[C@H](Cc1ccccc1)NC(=O)[C@H](CC(C)C)NC(=O)[C@H](CCCCN)NC(=O)[C@H](Cc1c[nH]c2ccccc12)NC(=O)[C@@H](N)CCCCN)C(=O)N[C@@H](Cc1c[nH]c2ccccc12)C(=O)N[C@@H](Cc1c[nH]c2ccccc12)C(=O)N1CCC[C@H]1C(=O)N[C@@H](Cc1ccccc1)C(=O)N[C@@H](CC(C)C)C(=O)N[C@@H](CCCNC(=N)N)C(=O)N[C@@H](CCCNC(=N)N)C(N)=O` [CA-TP] (H-KWKLFKKIWWPFLRR-NH2), the MIC (usually the lowest concentration that inhibits growth of the organism) with E. coli ATCC25922 was 2 µM (≈ 4.26 µg/mL); in the data set with E. coli UB 1005, 4 µM (≈ 8.53 µg/mL); in the data set on P. aeruginosa ATCC27853, 4 µM (≈ 8.53 µg/mL); in the data set with S. aureus ATCC29213 it was 2 µM (≈ 4.26 µg/mL); against S. epidermidis ATCC12228, 2 µM (≈ 4.26 µg/mL); with S. faecalis ATCC29212, 2 µM (≈ 4.26 µg/mL). Besides, the minimum inhibitory concentration (MIC) with S. pullorum C7913 amounted to 4 µM (≈ 8.53 µg/mL); in the data set with S. typhimurium ATCC14028, 4 µM (≈ 8.53 µg/mL); against S. typhimurium C7731, 2 µM (≈ 4.26 µg/mL). In addition, the “GM, geometric mean of the MIC values” in data set [1] came out at 2.72 µM. Besides, the “HC10, concentration that induced 10% hemolysis of human red blood cells” value with human erythrocytes (37 °C, 1 h) came out at 49.66. The “MIC after incubating with human serum” value against E. coli ATCC 25922 and against S. aureus ATCC 29213 was 4 µM throughout.
`CC[C@H](C)[C@H](NC(=O)[C@H](CCCCN)NC(=O)[C@H](CCCCN)NC(=O)[C@H](Cc1ccccc1)NC(=O)[C@H](CC(C)C)NC(=O)[C@H](CCCCN)NC(=O)[C@H](Cc1c[nH]c2ccccc12)NC(=O)[C@@H](N)CCCCN)C(=O)N[C@@H](CCCNC(=N)N)C(=O)N[C@@H](Cc1ccccc1)C(=O)NCC(=O)N[C@@H](CCCNC(=N)N)C(=O)N[C@@H](Cc1ccccc1)C(=O)N[C@@H](CC(C)C)C(=O)N[C@@H](CCCNC(=N)N)C(=O)N[C@@H](CCCCN)C(=O)N[C@H](C(=O)N[C@@H](CCCNC(=N)N)C(=O)N[C@@H](CCCNC(=N)N)C(=O)N[C@@H](Cc1ccccc1)C(=O)N[C@@H](CCCNC(=N)N)C(=O)N1CCC[C@H]1C(=O)N[C@@H](CCCCN)C(N)=O)[C@@H](C)CC` [CA-FO] (H-KWKLFKKIRFGRFLRKIRRFRPK-NH2): the MIC in the data set on E. coli ATCC25922 is 2 µM (≈ 6.21 µg/mL); with E. coli UB 1005 it was 2 µM (≈ 6.21 µg/mL); with P. aeruginosa ATCC27853 it was 4 µM (≈ 12.4 µg/mL); against S. aureus ATCC29213, 2 µM (≈ 6.21 µg/mL); with S. epidermidis ATCC12228 it was 4 µM (≈ 12.4 µg/mL); with S. faecalis ATCC29212 it was 4 µM (≈ 12.4 µg/mL). Further, the MIC against S. pullorum C7913 is listed as 8 µM (≈ 24.8 µg/mL); with S. typhimurium ATCC14028 it was 4 µM (≈ 12.4 µg/mL); against S. typhimurium C7731, 4 µM (≈ 12.4 µg/mL). In data set [1] (all nine tested Gram-negative and Gram-positive strains), the “MICs range against all tested bacterial strains” value lay within 2 to 8 µM. For the same compound, the “GM, geometric mean of the MIC values” in [1] worked out at 3.43 µM. The same compound displayed a hemolytic activity in the data set on human erythrocytes (256 μM peptide, 37 °C, 1 h, absorbance 576 nm, average of three independent experiments) of 13.83%. Further, the “HC10, concentration that induced 10% hemolysis of human red blood cells” value in the data set on human erythrocytes (37 °C, 1 h) turned out to be 143.34. Moreover, in the data set on human erythrocytes (at 256 μM), the “fold decrease of hemolysis compared to CA” value is on record as “approximately 5 fold”. Moreover, the “MIC after incubating with human serum” value with E. coli ATCC 25922 and against S. aureus ATCC 29213 was 4 µM each time.
Turning to `CC[C@H](C)[C@H](NC(=O)[C@H](CCCCN)NC(=O)[C@H](CCCNC(=N)N)NC(=O)[C@H](CC(C)C)NC(=O)[C@H](Cc1ccccc1)NC(=O)[C@H](CCCNC(=N)N)NC(=O)CNC(=O)[C@H](Cc1ccccc1)NC(=O)[C@@H](N)CCCNC(=N)N)C(=O)N[C@@H](CCCNC(=N)N)C(=O)N[C@@H](CCCNC(=N)N)C(=O)N[C@@H](Cc1ccccc1)C(=O)N[C@@H](CCCNC(=N)N)C(=O)N1CCC[C@H]1C(=O)N[C@@H](CCCCN)C(N)=O` [FO] (H-RFGRFLRKIRRFRPK-NH2), the MIC with E. coli ATCC25922 was 32 µM (≈ 65 µg/mL); in the data set with E. coli UB 1005 it was 16 µM (≈ 32.5 µg/mL); against P. aeruginosa ATCC27853, 32 µM (≈ 65 µg/mL); in the data set with S. aureus ATCC29213 it was 64 µM (≈ 130 µg/mL); in the data set on S. epidermidis ATCC12228, 16 µM (≈ 32.5 µg/mL); in the data set on S. faecalis ATCC29212, 16 µM (≈ 32.5 µg/mL). Moreover, the MIC against S. pullorum C7913 is 16 µM (≈ 32.5 µg/mL); in the data set on S. typhimurium ATCC14028, 32 µM (≈ 65 µg/mL); against S. typhimurium C7731, 32 µM (≈ 65 µg/mL). For the same compound, the “GM, geometric mean of the MIC values” in data set [1] is 25.40 µM. For the same compound, the “HC10, concentration that induced 10% hemolysis of human red blood cells” value with human erythrocytes (37 °C, 1 h) was 2.78.
On to `CC[C@H](C)[C@H](NC(=O)[C@H](CCCCN)NC(=O)[C@H](CCCCN)NC(=O)[C@H](Cc1ccccc1)NC(=O)[C@H](CC(C)C)NC(=O)[C@H](CCCCN)NC(=O)[C@H](Cc1c[nH]c2ccccc12)NC(=O)[C@@H](N)CCCCN)C(N)=O` [CA] (H-KWKLFKKI-NH2), for which the MIC is on record as 64 µM (≈ 69.7 µg/mL) with E. coli ATCC25922; over 128 µM against E. coli UB 1005; over 128 µM against P. aeruginosa ATCC27853; 128 µM (≈ 139 µg/mL) in the data set on S. aureus ATCC29213; over 128 µM in the data set with S. epidermidis ATCC12228; over 128 µM in the data set with S. faecalis ATCC29212. In addition, the MIC against S. pullorum C7913, with S. typhimurium ATCC14028 and against S. typhimurium C7731 was over 128 µM in each case. Also, the “GM, geometric mean of the MIC values” in data set [1] turned out to be 203.19 µM. Further, the “HC10, concentration that induced 10% hemolysis of human red blood cells” value with human erythrocytes (37 °C, 1 h) was 15.54.
Regarding `CC(C)C[C@H](NC(=O)[C@H](Cc1ccccc1)NC(=O)[C@@H]1CCCN1C(=O)[C@H](Cc1c[nH]c2ccccc12)NC(=O)[C@@H](N)Cc1c[nH]c2ccccc12)C(=O)N[C@@H](CCCNC(=N)N)C(=O)N[C@@H](CCCNC(=N)N)C(N)=O` [TP] (H-WWPFLRR-NH2), the MIC is given as 128 µM (≈ 136 µg/mL) against E. coli ATCC25922; 128 µM (≈ 136 µg/mL) with E. coli UB 1005; 64 µM (≈ 67.8 µg/mL) with P. aeruginosa ATCC27853; 64 µM (≈ 67.8 µg/mL) in the data set on S. aureus ATCC29213; 32 µM (≈ 33.9 µg/mL) against S. epidermidis ATCC12228; over 128 µM in the data set on S. faecalis ATCC29212. For the same compound, the MIC with S. pullorum C7913 is 64 µM (≈ 67.8 µg/mL); with S. typhimurium ATCC14028 it was 32 µM (≈ 33.9 µg/mL); in the data set with S. typhimurium C7731 it was 64 µM (≈ 67.8 µg/mL). Further, the “GM, geometric mean of the MIC values” in [1] worked out at 74.66 µM. Moreover, in the data set with human erythrocytes (37 °C, 1 h), the “HC10, concentration that induced 10% hemolysis of human red blood cells” value came out at 25.06.

The record behind these values is PMC7073140, “Hybridization with Insect Cecropin A (1–8) Improve the Stability and Selectivity of Naturally Occurring Peptides” (International Journal of Molecular Sciences, 2020).
